The text below walks through data of US7998903B2, “Glycerol-modified silicone spreading agent and a composition comprising the same” (Shin-Etsu Chemical Co., Ltd., priority 2004, dated 2011).

System in the first data set: not listed separately
Description: Degree of solubility (miscibility) of the silicone in oil agents. In kind it is physicochemical. Details: key: “D” means “dispersed”; “I” means “insoluble.”; A silicone with no mark means that it dissolved to form a transparent solution. The conditions noted are these: silicone/liquid paraffin = 10/90. The method, then: (§1) The present invention will be explained in detail with reference to the following Examples, but not limited to them. In the Examples, surface tension was measured with a full automatic tensiometer, model PD-W, ex Kyowa Interface Science Co. Ltd., at 25 degrees C. according to the water drop method in which a contact angle with the air is measured. A surface tension of dimethylpolysiloxane having a viscosity of 30 mm^2/s at 25 degrees C. measured according to this method was 18.2 mN/m. In the tables shown below, “D” and “I” each represents a degree of solubility: “D” means “dispersed” and “I” means “insoluble.” A silicone with no mark means that it dissolved to form a transparent solution.
(§2) Some properties and solubility in oil agents were determined with each of the glycerol-modified silicone prepared in Examples 1 to 5. Surface tension of the mixtures of the silicone and the oil agent were measured, too.
As for `C[Si](C)(CCCOCC(O)CO)O[Si](C)(C)CCCOCC(O)CO` (stereo not shown) [Comparative Example 1], the “Miscibility, glycerol-modified silicone/oil agent = 10/90, Liquid paraffin” value is “(I)”.

The same data set, now with this note: silicone/rapeseed oil = 10/90.
With `C[Si](C)(CCCOCC(O)CO)O[Si](C)(C)CCCOCC(O)CO` (stereo not shown) [Comparative Example 1], the “Miscibility, glycerol-modified silicone/oil agent = 10/90, Rapeseed oil” value is “(I)”.

The same data set, now with this note: silicone/soybean oil = 10/90.
Take `C[Si](C)(CCCOCC(O)CO)O[Si](C)(C)CCCOCC(O)CO` (stereo not shown) [Comparative Example 1]: the “Miscibility, glycerol-modified silicone/oil agent = 10/90, Soybean oil” value is on record as “(I)”.

System in the next data set: not listed separately
Description: Surface tension of silicone/oil agent mixtures, automatic tensiometer, 25 degrees C. In kind it is physicochemical. The conditions noted are these: 25 C.; silicone/liquid paraffin = 10/90; neat liquid paraffin 27.9. The method, then:
as §1, §2
Silicones modified with compounds other than glycerol were prepared. Mixtures with the oil agents were prepared and surface tension thereof was measured as in Examples.
Compositions were prepared containing an oil agent and the glycerol-modified silicone in a weight ratio of 90/10 and surface tension thereof was measured.
Silicones without having a glycerol residue and silicones having a structure other than, A-B-A, were prepared and subjected to the measurements as in Examples. Mixtures with the oil agents were prepared each of which surface tension was measured as in Examples.
Consider `CCCCCCCC[Si](C)(O[Si](C)(C)C)O[Si](C)(C)C` [Comparative Example 6], for which the “Surface Tension, glycerol-modified silicone/oil agent = 10/90, Liquid paraffin” value was 25.5 mN/m.

Take `C[Si](C)(C)O[Si](C)(C)CCCOCC(O)CO` (stereo not shown) [Example 1]: the “Surface Tension, glycerol-modified silicone/oil agent = 10/90, Liquid paraffin” value worked out at 21.3 mN/m.

In the case of `CCCCCCCCCCCC[Si](C)(O[Si](C)(C)C)O[Si](C)(C)C` [compound 7], the “Surface Tension, glycerol-modified silicone/oil agent = 10/90, Liquid paraffin” value was found to be 26.3 mN/m.

For the compound `CCCCCCCC[Si](C)(C)O[Si](C)(C)O[Si](C)(C)C` [compound 8], the “Surface Tension, glycerol-modified silicone/oil agent = 10/90, Liquid paraffin” value was 25 mN/m.

As to `C[Si](C)(C)O[Si](C)(CCCCCO)O[Si](C)(C)C` [compound 10], the “Surface Tension, glycerol-modified silicone/oil agent = 10/90, Liquid paraffin” value came to 25.4 mN/m.

With `CC(CCO)C[Si](C)(O[Si](C)(C)C)O[Si](C)(C)C` (stereo not shown) [compound 11], the “Surface Tension, glycerol-modified silicone/oil agent = 10/90, Liquid paraffin” value stood at 23.7 mN/m.

For `CCC(CO)(CO)COCCC[Si](C)(C)O[Si](C)(C)C` [compound 14], the “Surface Tension, glycerol-modified silicone/oil agent = 10/90, Liquid paraffin” value is reported as 23 mN/m.

On to `CCC(CO)(CO)COCCC[Si](C)(O[Si](C)(C)C)O[Si](C)(C)C` [compound 15], for which the “Surface Tension, glycerol-modified silicone/oil agent = 10/90, Liquid paraffin” value turned out to be 22.1 mN/m.

The data set is the same for the next values; noted with them: 25 C.; silicone/rapeseed oil = 10/90; neat rapeseed oil 31.
`CCCCCCCC[Si](C)(O[Si](C)(C)C)O[Si](C)(C)C` [Comparative Example 6]: the “Surface Tension, glycerol-modified silicone/oil agent = 10/90, Rapeseed oil” value is given as 24.5 mN/m.

`C[Si](C)(C)O[Si](C)(C)CCCOCC(O)CO` (stereo not shown) [Example 1]: the “Surface Tension, glycerol-modified silicone/oil agent = 10/90, Rapeseed oil” value stood at 22.6 mN/m.

On to `CC(CCO)C[Si](C)(O[Si](C)(C)C)O[Si](C)(C)C` (stereo not shown) [compound 11], for which the “Surface Tension, glycerol-modified silicone/oil agent = 10/90, Rapeseed oil” value came to 24.9 mN/m.

On to `CCC(CO)(CO)COCCC[Si](C)(C)O[Si](C)(C)C` [compound 14], for which the “Surface Tension, glycerol-modified silicone/oil agent = 10/90, Rapeseed oil” value was found to be 26.9 mN/m.

`CCC(CO)(CO)COCCC[Si](C)(O[Si](C)(C)C)O[Si](C)(C)C` [compound 15]: the “Surface Tension, glycerol-modified silicone/oil agent = 10/90, Rapeseed oil” value is 25.3 mN/m.

The same data set, now with this note: 25 C.; silicone/soybean oil = 10/90; neat soybean oil 31.8.
`CCCCCCCC[Si](C)(O[Si](C)(C)C)O[Si](C)(C)C` [Comparative Example 6]: the “Surface Tension, glycerol-modified silicone/oil agent = 10/90, Soybean oil” value is given as 24.9 mN/m.

`C[Si](C)(C)O[Si](C)(C)CCCOCC(O)CO` (stereo not shown) [Example 1]: the “Surface Tension, glycerol-modified silicone/oil agent = 10/90, Soybean oil” value stood at 21.9 mN/m.

Take `CC(CCO)C[Si](C)(O[Si](C)(C)C)O[Si](C)(C)C` (stereo not shown) [compound 11]: the “Surface Tension, glycerol-modified silicone/oil agent = 10/90, Soybean oil” value came to 24.3 mN/m.

As for `CCC(CO)(CO)COCCC[Si](C)(C)O[Si](C)(C)C` [compound 14], the “Surface Tension, glycerol-modified silicone/oil agent = 10/90, Soybean oil” value came to 27.5 mN/m.

In the case of `CCC(CO)(CO)COCCC[Si](C)(O[Si](C)(C)C)O[Si](C)(C)C` [compound 15], the “Surface Tension, glycerol-modified silicone/oil agent = 10/90, Soybean oil” value was found to be 26 mN/m.

Still in this data set, the particulars now being: Table 5; 1 wt % silicone; oil agent not named.
Take `CCCCCCCC[Si](C)(O[Si](C)(C)C)O[Si](C)(C)C` [Comparative Example 6]: the “Surface tension, amount added 1 wt %” value stood at 27.4 mN/m.

Consider `C[Si](C)(C)O[Si](C)(CCCCCO)O[Si](C)(C)C` [compound 10], for which the “Surface tension, amount added 1 wt %” value is 26.6 mN/m.

For the compound `CC(CCO)C[Si](C)(O[Si](C)(C)C)O[Si](C)(C)C` (stereo not shown) [compound 11], the “Surface tension, amount added 1 wt %” value came to 27 mN/m.

The data set is the same for the next values; noted with them: Table 5; 5 wt % silicone; oil agent not named.
Turning to `CCCCCCCC[Si](C)(O[Si](C)(C)C)O[Si](C)(C)C` [Comparative Example 6], the “Surface tension, amount added 5 wt %” value amounted to 25.3 mN/m.

Regarding `C[Si](C)(C)O[Si](C)(CCCCCO)O[Si](C)(C)C` [compound 10], the “Surface tension, amount added 5 wt %” value is 25 mN/m.

For the compound `CC(CCO)C[Si](C)(O[Si](C)(C)C)O[Si](C)(C)C` (stereo not shown) [compound 11], the “Surface tension, amount added 5 wt %” value is recorded as 24.4 mN/m.

The same data set, now with this note: Table 5; 10 wt % silicone; oil agent not named.
As for `CCCCCCCC[Si](C)(O[Si](C)(C)C)O[Si](C)(C)C` [Comparative Example 6], the “Surface tension, amount added 10 wt %” value is on record as 25.5 mN/m.

As for `C[Si](C)(C)O[Si](C)(CCCCCO)O[Si](C)(C)C` [compound 10], the “Surface tension, amount added 10 wt %” value worked out at 25.4 mN/m.

As to `CC(CCO)C[Si](C)(O[Si](C)(C)C)O[Si](C)(C)C` (stereo not shown) [compound 11], the “Surface tension, amount added 10 wt %” value was determined as 23.7 mN/m.

The same data set, now with this note: Table 5; 15 wt % silicone; oil agent not named.
Take `CCCCCCCC[Si](C)(O[Si](C)(C)C)O[Si](C)(C)C` [Comparative Example 6]: the “Surface tension, amount added 15 wt %” value was found to be 24.4 mN/m.

Take `C[Si](C)(C)O[Si](C)(CCCCCO)O[Si](C)(C)C` [compound 10]: the “Surface tension, amount added 15 wt %” value was found to be 22.7 mN/m.

Regarding `CC(CCO)C[Si](C)(O[Si](C)(C)C)O[Si](C)(C)C` (stereo not shown) [compound 11], the “Surface tension, amount added 15 wt %” value was 23.7 mN/m.

Another data set relates to leaf of Citrus Natsudaidai. Description: Spreading of one drop of liquid paraffin containing silicone on a leaf (FIGS. 1 & 2). The conditions noted are these: 15 μl drop of liquid paraffin containing 10 wt % silicone; 5 minutes after placing. The method, then:
FIGS. 1 & 2 are photographs each taken 5 minutes after one drop, i.e., 15 μl, of liquid paraffin containing 10 wt % of the silicone of Example 2 and Comparative Example 6, respectively, was placed on a leaf of Citrus Natsudaidai. […] Comparing the figures, the liquid paraffin containing the glycerol-modified silicone in Example 2 has better spreading property than the silicone modified with n-octene.
Turning to `CCCCCCCC[Si](C)(O[Si](C)(C)C)O[Si](C)(C)C` [Comparative Example 6], the “spreading of a drop on a leaf” value was “remained as a small circle”.
